Tests used:
[1] = experimentally determined values from literature; cited from earlier work
[2] = General solubility of 4-isopropyl-3-methyl-phenol in different hydrophilic solvents, storage at 5° C.; type: physicochemical; details: stored at 5° C.
Procedure: After preparation, the samples were stored at 5° C. for […]. […] The evaluation of these limits was important for further determination of quantitative solubility improvement. The results are compiled in Table A and 13; the symbols have the following meanings: (++++) fully dissolved; (++) dissolved, but moderate recrystallisation after 48 h at 5° C.; (+) dissolved, but strong recrystallisation after 48 h at 5° C.; (#) not dissolved.

[3] = Recrystallization in shampoo, 2 days at 5° C., microscopy; type: physicochemical; details: polarized light, 60 fold, 0.1% 4-isopropyl-3-methyl-phenol
Procedure: To investigate the influence on recrystallization in a finished formulation the pre-solutions BC, BC2, BC3 and BC5 (Table 3) in comparison to neat 4-isopropyl-3-methyl phenol were incorporated into a shampoo. (Table 5, trials 1-5) The samples were stored for 2 days at 5° C. and then examined by microscopy.
Production method shampoo: Blend Phase A by stirring slowly with a vane stirrer, stop the process when foaming starts. Swell Ucare Poylmer JR-400 in water by stirring and warming up to 50° C. (The dispersion becomes clear and slightly viscous, when swelling process is completed) Add Phases B, C and D to A one after the other by stirring with a vane stirrer.
Incorporation of 4-isopropyl-3-methyl-phenol (neat) into the finished shampoo: Heat up the shampoo to 70° C., add 4-isopropyl-3-methyl-phenol and stir for 15 min.
Incorporation of solutions BC, BC2, B3 and BC5: Blend 0,45% (corresponds to 0,1% neat 4-isopropyl-3-methyl-phenol) of the different mixtures with the shampoo formula at 22° C. by […]
Microscopic images (Olympus IX 70, polarized light, 60 fold) of shampoo formulae 1-5 after 2 days storage at 5° C. are provided in FIGS. 4A to 4E.

| Compound | LOG Po/w (exp.) [1] | also measured |
| --- | --- | --- |
| COC(=O)c1ccccc1O [Methyl salicylate] | 2.55 |  |
| CCCCC(O)CO (stereo not shown) [1,2-Hexanediol] | 0.69 |  |
| CCOCCOCCO [Ethoxydiglycol] | −0.54 |  |
| CC(=O)OCCC(C)C [Isoamyl acetate] | 2.25 |  |
| O=C(OCCc1ccccc1)c1ccccc1 [Phenethyl Benzoate] | 4.01 |  |
| OCc1ccccc1 [Benzylalkohol] |  | Solubility of 4-isopropyl-3-methyl-phenol in different hydrophilic solvents ([2]; Concentration 15 % b.w.): ++; Solubility of 4-isopropyl-3-methyl-phenol in different hydrophilic solvents ([2]; Concentration 22 % b.w.): +; Solubility of 4-isopropyl-3-methyl-phenol in different hydrophilic solvents ([2]; Concentration 25 % b.w.): +; Solubility of 4-isopropyl-3-methyl-phenol in different hydrophilic solvents ([2]; Concentration 30 % b.w.): +; Solubility of 4-isopropyl-3-methyl-phenol in different hydrophilic solvents ([2]; Concentration 34 % b.w.): +; Solubility of 4-isopropyl-3-methyl-phenol in different hydrophilic solvents ([2]; Concentration 36 % b.w.): +; Solubility of 4-isopropyl-3-methyl-phenol in different hydrophilic solvents ([2]; Concentration 40 % b.w.): +; Solubility of 4-isopropyl-3-methyl-phenol in different hydrophilic solvents ([2]; Concentration 46 % b.w.): + |
| CCOC(C)=O [Ethyl acetate] | 0.73 |  |
| OCCOc1ccccc1 [Phenoxyethanol] | 1.16 |  |
| OCCO [Ethylene glycol] | −1.36 |  |
| CC(C)[C@@H]1CC[C@@H](C)CC1=O [Menthone] | 3.05 |  |
| CC(O)CO (stereo not shown) [Propylene Glycol] |  | Solubility of 4-isopropyl-3-methyl-phenol in different hydrophilic solvents ([2]; Concentration 22 % b.w.): ++; Solubility of 4-isopropyl-3-methyl-phenol in different hydrophilic solvents ([2]; Concentration 25 % b.w.): + |
| CC(=O)OC1CC(C)CCC1C(C)C (stereo not shown) [Menthyl acetate] | 4.00 |  |
| CCCCCCCCCCCC(=O)OCC [Ethyl Laurate] | 5.71 |  |
| C=C(C)[C@H]1CC=C(C)CC1 [Limonene] | 4.38 |  |
| C=C(C)C1CC=C(C)C(=O)C1 (stereo not shown) [Carvone] | 2.71 |  |
| O=C1OCC(CO)O1 (stereo not shown) [Glycerin Carbonate] |  | Solubility of 4-isopropyl-3-methyl-phenol in different hydrophilic solvents ([2]; Concentration 5 % b.w.): ++ |
| Cc1cc(O)ccc1C(C)C [4-isopropyl-3-methyl-phenol] |  | Recrystallization in shampoo [3]: recrystallized |
| CC1COC(=O)O1 (stereo not shown) [Propylene Carbonate] |  | Solubility of 4-isopropyl-3-methyl-phenol in different hydrophilic solvents ([2]; Concentration 18 % b.w.): ++; Solubility of 4-isopropyl-3-methyl-phenol in different hydrophilic solvents ([2]; Concentration 29 % b.w.): + |
| Cc1ccc(C(C)C)cc1O [Carvacrol] | 3.49 |  |

From patent US11400035B2, “Preservative mixture” (Symrise AG, priority 2016, dated 2022)
